Reference: BigSolDB 2.1

C[N+](C)(C)CC(=O)[O-]
Details | solubility (mole fraction)
in DMSO, 288.51 K | 0.001
in DMSO, 292.73 K | 0.00116
in DMSO, 298.34 K | 0.00139
in DMSO, 305.16 K | 0.00172
in DMSO, 308.53 K | 0.0019
in DMSO, 313.2 K | 0.00219
in DMSO, 318.16 K | 0.00253
in DMSO, 322.88 K | 0.00291
in DMSO, 327.87 K | 0.00334
in DMSO, 333.58 K | 0.00391
in acetic acid, 292.83 K | 0.23
in acetic acid, 297.84 K | 0.239
in acetic acid, 302.28 K | 0.252
in acetic acid, 308.31 K | 0.268
in acetic acid, 312.79 K | 0.279
in acetic acid, 317.76 K | 0.298
in acetic acid, 322.58 K | 0.306
in acetic acid, 328.87 K | 0.327
in acetic acid, 333.12 K | 0.344
in ethylene glycol, 283.42 K | 0.102
in ethylene glycol, 288.53 K | 0.109
in ethylene glycol, 292.46 K | 0.117
in ethylene glycol, 298.03 K | 0.125
in ethylene glycol, 303.87 K | 0.137
in ethylene glycol, 308.52 K | 0.145
in ethylene glycol, 314.59 K | 0.161
in ethylene glycol, 318.19 K | 0.167
in ethylene glycol, 323.98 K | 0.183
in ethylene glycol, 328.33 K | 0.192
in isopentanol, 286.47 K | 0.000166
in isopentanol, 289.13 K | 0.000185
in isopentanol, 293.93 K | 0.000225
in isopentanol, 298.25 K | 0.000269
in isopentanol, 302.72 K | 0.000316
in isopentanol, 307.37 K | 0.000378
in isopentanol, 314.06 K | 0.000477
in isopentanol, 318.23 K | 0.000556
in isopentanol, 322.6 K | 0.000646
in n-pentanol, 285.88 K | 0.000216
in n-pentanol, 289.5 K | 0.000249
in n-pentanol, 294.44 K | 0.000301
in n-pentanol, 299.59 K | 0.000368
in n-pentanol, 304.38 K | 0.000436
in n-pentanol, 309.45 K | 0.000523
in n-pentanol, 313.8 K | 0.000609
in n-pentanol, 318.18 K | 0.000705
in n-pentanol, 323.02 K | 0.000822
